Values joined by “and” are separate entries in the source; they are usually repeats but may differ in a detail not shown here. Equal values may be shown once.
Tests used:
Assay type in all cases: biochemical
HRP = target: T1, HRP (Armoracia rusticana, UniProt P00433); assay: HRP model system on PMMA particles, with and without ascorbic acid; conditions: 200 μM Ascorbate; for RLU: replicates
T1 construct: purchased Roche Diagnostics, Indianapolis, Ind., USA
T1 sequence (P00433 31-338 limits assumed): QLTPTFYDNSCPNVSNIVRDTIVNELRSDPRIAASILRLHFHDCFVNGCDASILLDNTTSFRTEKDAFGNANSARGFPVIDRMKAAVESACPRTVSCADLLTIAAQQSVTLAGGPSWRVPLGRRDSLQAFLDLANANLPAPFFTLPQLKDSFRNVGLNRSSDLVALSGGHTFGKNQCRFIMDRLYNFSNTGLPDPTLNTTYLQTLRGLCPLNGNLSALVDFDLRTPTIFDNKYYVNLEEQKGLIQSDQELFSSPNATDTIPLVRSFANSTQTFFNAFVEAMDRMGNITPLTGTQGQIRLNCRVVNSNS
Procedure: In order to further investigate the effect of specific solid phase particles on the assays described herein, a comparison of a variety of particle types was conducted, including silica, polymethylmethacrylate (PMMA). Carboxyl modified PMMA particles (PolyAn GmbH, Berlin) were labeled with AK and biotin as described in Example 3, followed by coating with streptavidin. Silica particles were reacted with 3-aminopropylsiloxane in 1 mM acetic acid to provide an amine reactive group. The amine functional groups were reacted with AK-3 and biotin-LC-sulfoNHS, followed by coating with streptavidin.
Signal generation with Silica and PMMA particles. Assays using the HRP model system, as generally described in Example 1, were conducted on silica particles and PMMA particles, with and without ascorbic acid in the reaction mixture. The assays were run on a modified DxI instrument as described above. The assay conditions consisted of combining 45 μL BUFFER II (with or without ascorbic acid), 25 μL of particle suspension, and 15 μL of sample and incubating for 30 min. Then 100 μL of trigger solution A was added to the reaction vessel and the light intensity was recorded.

cTnI = cTnI assay with various magnetic particles, without and with ascorbic acid 150 μM
Excerpt: The effectiveness of ascorbic acid in improving assay performance in microparticle formats was investigated using a cTnI analyte with various magnetic particles. Magnetic particles evaluated included LodeStars PMP, latex PMP and carboxylate-modified polystyrene latex PMP. “Lot B Magnetic Particle” are 6.2 μm diameter carboxyl PMPs (Bangs Laboratories, Fishers, Ind.). “Lot D Magnetic Particle” are 8.1 μm diameter carboxyl PMPs (Bangs Laboratories). “Lot F Latex Particle” are 3.1 μm diameter carboxyl PMPs (Seradyn Products, Thermo-Fisher, Indianapolis, Ind.). “CML PMP” are […] diameter carboxylate modified latex particles (Invitrogen, Carlsbad, Calif.). LodeStars PMP were labeled with AK4 and biotin by EDC coupling and overcoated with streptavidin following the general protocol of Example 3. Lots B, D, and F and CML PMP were labeled with AK-BSA-biotin according to Example 1. The particles were then coated with streptavidin and bound to biotin-labeled anti-cTnI.
In an initial experiment, the cTnI assay was conducted without ascorbic acid in the reaction mix.
In this case, LodeStars particles retain much more specific signal than the other particle types, even while the background decreases almost […].

biotin-HRP = assay: Effect of ascorbic acid incubation time on chemiluminescence, Dynal M-280 biotin-HRP system; conditions: incubation time 80-330 seconds; ascorbic acid 0-200 μM; in words
Procedure: The effect of the length of time that a sample is exposed to ascorbic acid on the observed reduction of chemiluminescence intensity was investigated in a series of experiments employing the Dynal M-280 PMP particles and biotin-HRP system described in Example 11. Briefly, biotin-labeled PMPs, and various biotin-HRP/HRP solutions were allowed to bind and ascorbic acid solutions added. After a delay period ranging from 80-330 seconds, trigger solution A was injected and the chemiluminescence intensity integrated. The biotin-HRP/HRP solutions contained a total of 200 ng/mL HRP in the proportion 1:200, 8:192, and 32:168 biotin-HRP:HRP. Trials were run using various concentrations of ascorbic acid as the Sample in water at 0, 25, 50 100 and 200 μM.

PSA = assay: Effect of trigger pH: PSA on LodeStar particles with ascorbate
Procedure: B. In order to determine the effect of trigger solution pH on a variety of test assay systems, a series of experiments were conducted varying trigger pH. […] In the tables, two pH values are listed for each data set. The first is the pH of the buffer sample added to the reaction mixture. The second is the resulting pH of the final reaction mix.

[1] = Control (7.7), S1, PSA 400 pg/ml
[2] = Control (7.7), S2, PSA 1400 pg/ml
[3] = Control (7.7), S3, PSA 7000 pg/ml
[4] = Control (7.7), S4, PSA 51000 pg/ml
[5] = Control (7.7), S5, PSA 101600 pg/ml
[6] = pH 6.0 (6.2), S1, PSA 400 pg/ml
[7] = pH 6.0 (6.2), S2, PSA 1400 pg/ml
[8] = pH 6.0 (6.2), S3, PSA 7000 pg/ml
[9] = pH 6.0 (6.2), S4, PSA 51000 pg/ml
[10] = pH 6.0 (6.2), S5, PSA 101600 pg/ml
[11] = pH 7.0 (7.4), S1, PSA 400 pg/ml
[12] = pH 7.0 (7.4), S2, PSA 1400 pg/ml
[13] = pH 7.0 (7.4), S3, PSA 7000 pg/ml
[14] = pH 7.0 (7.4), S4, PSA 51000 pg/ml
[15] = pH 7.0 (7.4), S5, PSA 101600 pg/ml
[16] = pH 8.0 (7.9), S1, PSA 400 pg/ml
[17] = pH 8.0 (7.9), S2, PSA 1400 pg/ml
[18] = pH 8.0 (7.9), S3, PSA 7000 pg/ml
[19] = pH 8.0 (7.9), S4, PSA 51000 pg/ml
[20] = pH 8.0 (7.9), S5, PSA 101600 pg/ml
[21] = pH 9.0 (8.4), S1, PSA 400 pg/ml
[22] = pH 9.0 (8.4), S2, PSA 1400 pg/ml
[23] = pH 9.0 (8.4), S3, PSA 7000 pg/ml
[24] = pH 9.0 (8.4), S4, PSA 51000 pg/ml
[25] = pH 9.0 (8.4), S5, PSA 101600 pg/ml

With `O=C1O[C@H]([C@@H](O)CO)C(O)=C1O` [Ascorbic Acid, Ascorbic acid] the “Mean RLU” value (HRP; HRP 0 ng/ml) was 20,135 RLU, the S/S0 (HRP; HRP 0 ng/ml) was 1.0 and the RLU (HRP; HRP 0 ng/ml) was 20,656 RLU and 19,436 RLU and 20,312 RLU. For the same compound, the “Mean RLU” value (HRP; HRP 1 ng/ml) was 118,472 RLU, the S/S0 (HRP; HRP 1 ng/ml) was 5.9 and the RLU (HRP; HRP 1 ng/ml) was 116,596 RLU and 116,308 RLU and 122,512 RLU. The “Mean RLU” value (HRP; HRP 10 ng/ml) was 2,061,780 RLU, the S/S0 (HRP; HRP 10 ng/ml) was 102.4 and the RLU (HRP; HRP 10 ng/ml) was 2,066,824 RLU and 2,171,080 RLU and 1,947,436 RLU. For the same compound, the “Mean RLU” value (HRP; HRP 100 ng/ml) was 12,093,261 RLU, the S/S0 (HRP; HRP 100 ng/ml) was 600.6 and the RLU (HRP; HRP 100 ng/ml) was 12,257,256 RLU and 11,862,048 RLU and 12,160,480 RLU. For the same compound, the “Mean RLU” value (HRP; HRP 250 ng/ml) was 12,565,744 RLU, the S/S0 (HRP; HRP 250 ng/ml) was 624.1 and the RLU (HRP; HRP 250 ng/ml) was 12,575,032 RLU and 12,552,012 RLU and 12,570,188 RLU. For the same compound, the background decrease (cTnI; ascorbic acid 150 μM prior to addition of trigger, LodeStars particles) was about 300%, the assay sensitivity (cTnI; ascorbic acid in the assay reaction mixture, in words) was “significantly improves the assay sensitivity” and the “effect of ascorbic acid incubation time on observed chemiluminescence” value (biotin-HRP) was “does not appear to cause a significant effect”. For the same compound, the “Mean RLU” value (PSA; Control (7.7), S0, PSA 0 pg/ml) was 8,192 RLU, the “Mean RLU” value (PSA; [1]) was 91,301 RLU and the S/S0 (PSA; [1]) was 11.1. The “Mean RLU” value (PSA; [2]) was 403,035 RLU, the S/S0 (PSA; [2]) was 49.2 and the “Mean RLU” value (PSA; [3]) was 2,803,433 RLU. For the same compound, the S/S0 (PSA; [3]) was 342.2, the “Mean RLU” value (PSA; [4]) was 10,490,375 RLU and the S/S0 (PSA; [4]) was 1280.6. For the same compound, the “Mean RLU” value (PSA; [5]) was 10,598,780 RLU, the S/S0 (PSA; [5]) was 1293.8 and the “Mean RLU” value (PSA; pH 6.0 (6.2), S0, PSA 0 pg/ml) was 3,301 RLU. The “Mean RLU” value (PSA; [6]) was 34,485 RLU, the S/S0 (PSA; [6]) was 10.4 and the “Mean RLU” value (PSA; [7]) was 114,219 RLU. For the same compound, the S/S0 (PSA; [7]) was 34.6, the “Mean RLU” value (PSA; [8]) was 786,859 RLU and the S/S0 (PSA; [8]) was 238.3. For the same compound, the “Mean RLU” value (PSA; [9]) was 3,198,045 RLU, the S/S0 (PSA; [9]) was 968.7 and the “Mean RLU” value (PSA; [10]) was 3,728,345 RLU. The S/S0 (PSA; [10]) was 1129.3, the “Mean RLU” value (PSA; pH 7.0 (7.4), S0, PSA 0 pg/ml) was 7,704 RLU and the “Mean RLU” value (PSA; [11]) was 87,221 RLU. For the same compound, the S/S0 (PSA; [11]) was 11.3, the “Mean RLU” value (PSA; [12]) was 333,253 RLU and the S/S0 (PSA; [12]) was 43.3. For the same compound, the “Mean RLU” value (PSA; [13]) was 2,640,633 RLU, the S/S0 (PSA; [13]) was 342.8 and the “Mean RLU” value (PSA; [14]) was 9,524,603 RLU. The S/S0 (PSA; [14]) was 1236.3, the “Mean RLU” value (PSA; [15]) was 10,001,948 RLU and the S/S0 (PSA; [15]) was 1298.3. For the same compound, the “Mean RLU” value (PSA; pH 8.0 (7.9), S0, PSA 0 pg/ml) was 9,345 RLU, the “Mean RLU” value (PSA; [16]) was 96,427 RLU and the S/S0 (PSA; [16]) was 10.3. The “Mean RLU” value (PSA; [17]) was 429,327 RLU, the S/S0 (PSA; [17]) was 45.9 and the “Mean RLU” value (PSA; [18]) was 3,433,037 RLU. The S/S0 (PSA; [18]) was 367.4, the “Mean RLU” value (PSA; [19]) was 11,497,652 RLU and the S/S0 (PSA; [19]) was 1230.3. The “Mean RLU” value (PSA; [20]) was 11,461,215 RLU, the S/S0 (PSA; [20]) was 1226.4 and the “Mean RLU” value (PSA; pH 9.0 (8.4), S0, PSA 0 pg/ml) was 5,821 RLU. The “Mean RLU” value (PSA; [21]) was 73,801 RLU, the S/S0 (PSA; [21]) was 12.7 and the “Mean RLU” value (PSA; [22]) was 315,528 RLU. For the same compound, the S/S0 (PSA; [22]) was 54.2, the “Mean RLU” value (PSA; [23]) was 2,592,673 RLU and the S/S0 (PSA; [23]) was 445.4. The “Mean RLU” value (PSA; [24]) was 11,443,659 RLU, the S/S0 (PSA; [24]) was 1965.8 and the “Mean RLU” value (PSA; [25]) was 11,479,280 RLU. For the same compound, the S/S0 (PSA; [25]) was 1971.9.

Reference: patent US20100273189A1, “NON SEPARATION ASSAYS WITH SELECTIVE SIGNAL INHIBITORS” (BECKMAN COULTER, INC., priority 2009, published 2010)
